Assay [1] addresses T1, Recombinant STAT3 protein (STAT3 (G127-I722)) (Homo sapiens, UniProt P40763).
T1 construct: Recombinant STAT3 protein (STAT3 (G127-I722))
Kind of assay: STAT3 Fluorescence Polarization (FP) Assay. The class given is binding. Conditions: STAT3 (G127-I722) 25 nM, probe 5-FAM-GpYLPQTV-NH2 2 nM, 45-minute incubation; read-out: STAT3 (FP assay IC50 class). A digest of the protocol:
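Compounds in serial dilution receive a premix of STAT3 (G127-I722, 25 nM) and fluorescent phosphotyrosine peptide 5-FAM-GpYLPQTV-NH2 (2 nM) at pH 7.4. After 45 min at room temperature, FP is measured and IC50 derived by nonlinear regression.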
In general terms: In fluorescence polarisation assays a small probe gives low polarisation when free and higher when bound to something large.

Assay [2] deals with T2, Recombinant STAT6 protein (STAT6 (W123-T658)) (Homo sapiens, UniProt P42226).
T2 construct: Recombinant STAT6 protein (STAT6 (W123-T658))
T2 sequence (P42226 123-658): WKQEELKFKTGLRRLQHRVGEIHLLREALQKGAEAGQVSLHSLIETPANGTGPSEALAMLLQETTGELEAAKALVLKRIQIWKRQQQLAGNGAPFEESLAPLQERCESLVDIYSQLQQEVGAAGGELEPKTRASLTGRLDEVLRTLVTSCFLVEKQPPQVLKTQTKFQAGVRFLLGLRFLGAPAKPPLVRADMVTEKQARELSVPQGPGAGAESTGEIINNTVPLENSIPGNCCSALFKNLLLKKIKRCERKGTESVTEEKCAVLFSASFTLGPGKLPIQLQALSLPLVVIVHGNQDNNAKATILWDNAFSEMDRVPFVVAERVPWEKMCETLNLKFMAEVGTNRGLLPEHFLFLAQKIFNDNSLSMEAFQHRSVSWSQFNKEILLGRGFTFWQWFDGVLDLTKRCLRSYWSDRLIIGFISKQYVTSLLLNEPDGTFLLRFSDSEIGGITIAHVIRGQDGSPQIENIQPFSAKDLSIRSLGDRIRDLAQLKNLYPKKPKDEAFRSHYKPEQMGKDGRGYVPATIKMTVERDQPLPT
Kind of assay: STAT6 Fluorescence Polarization (FP) Assay. The format is binding. Conditions: STAT6 (W123-T658) 250 nM, probe 5-FAM-Ap[…]-NH2 2 nM, 45-minute incubation; read-out: STAT6 (FP assay IC50 class). A digest of the protocol:
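Competitive FP binding: recombinant STAT6 (W123-T658) at 250 nM, labeled phosphotyrosine peptide at 2 nM, compounds at 1% DMSO, 45 min at RT before reading. IC50 values were obtained from nonlinear regression of mP versus log concentration.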

T1 sequence (P40763 127-722): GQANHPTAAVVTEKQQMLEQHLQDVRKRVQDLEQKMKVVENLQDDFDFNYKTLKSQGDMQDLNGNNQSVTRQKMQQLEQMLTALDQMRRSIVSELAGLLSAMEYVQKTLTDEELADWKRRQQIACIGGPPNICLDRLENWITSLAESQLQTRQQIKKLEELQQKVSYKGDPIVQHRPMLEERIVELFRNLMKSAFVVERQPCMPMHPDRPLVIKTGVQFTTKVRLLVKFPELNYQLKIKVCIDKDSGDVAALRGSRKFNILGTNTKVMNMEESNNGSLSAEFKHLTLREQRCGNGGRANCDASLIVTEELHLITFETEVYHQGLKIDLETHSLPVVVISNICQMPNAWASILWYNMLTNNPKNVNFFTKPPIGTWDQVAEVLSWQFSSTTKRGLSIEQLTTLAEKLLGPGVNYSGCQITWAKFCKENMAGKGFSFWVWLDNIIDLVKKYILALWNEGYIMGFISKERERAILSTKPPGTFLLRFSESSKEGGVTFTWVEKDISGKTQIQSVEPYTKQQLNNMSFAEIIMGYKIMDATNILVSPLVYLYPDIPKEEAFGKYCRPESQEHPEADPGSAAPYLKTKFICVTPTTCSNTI

In the case of `O=C(N[C@H]1CCC[C@H]2CC[C@@H](C(=O)N3CC(c4ccnc(O)n4)C3)N2C1=O)c1cc2cc(C(F)P(=O)(O)O)ccc2s1` (stereo partly drawn) [Compound 927, (fluoro(2-(((3S,6S,9aS)-3-(3-(2-hydroxypyrimidin-4-yl)azetidine-1-carbonyl)-5-oxooctahydro-1H-pyrrolo[1,2-a]azepin-6-yl)carbamoyl)benzo [b]thiophen-5-yl)methyl) phosphonic acid], the IC50 – broadly, the concentration that gives 50% inhibition – is < 100 nM in assay [1] and 3000 to 30000 nM in assay [2].

Consider `CCOc1c(F)cncc1C1CN(C(=O)[C@@H]2CC[C@@H]3CCC[C@H](NC(=O)c4cc5cc([C@@H](F)P(=O)(O)O)ccc5s4)C(=O)N32)C1` [Compound 928, ((S)-(2-(((3S,6S,9aS)-3-(3-(4-ethoxy-5-fluoropyridin-3-yl)azetidine-1-carbonyl)-5-oxooctahydro-1H-pyrrolo[1,2-a]azepin-6-yl)carbamoyl)benzo [b]thiophen-5-yl)fluoromethyl) phosphonic acid], for which the figures for the IC50 in assay [1] and in assay [2] were 1000 to 10000 nM and 3000 to 30000 nM, respectively.

For the compound `N#C[C@H]1[C@H](c2ccccc2)CN(C(=O)[C@@H]2CC[C@@H]3CCCC[C@H](NC(=O)c4cc5cc(CP(=O)(O)O)ccc5s4)C(=O)N32)C12CC2` [Compound 929, ((2-(((3S,6S,10aS)-3-((6R,7S)-7-cyano-6-phenyl-4-azaspiro[2.4]heptane-4-carbonyl)-5-oxodecahydropyrrolo [1,2-a]azocin-6-yl)carbamoyl)benzo [b]thiophen-5-yl)methyl) phosphonic acid], the IC50 was 1000 to 10000 nM in assay [1] and ≤ 300 nM in assay [2].

As for `CCC[C@@H]1CC[C@H](NC(=O)c2cc3cc([C@H](F)P(=O)(O)O)ccc3s2)C(=O)N2[C@H](CC[C@H]2C(=O)N2CC(c3cnccc3N3CCC3)C2)C1` [Compound 930, ((R)-(2-(((3S,6S,9R,10aR)-3-(3-(4-(azetidin-1-yl)pyridin-3-yl)azetidine-1-carbonyl)-5-oxo-9-propyldecahydro-pyrrolo[1,2-a]azocin-6-yl)carbamoyl)benzo [b]thiophen-5-yl)fluoromethyl) phosphonic acid], the values for the IC50 in assay [1] and in assay [2] were 100 to 1000 nM and 3000 to 30000 nM, respectively.

Turning to `CC[C@@H]1CC[C@H](NC(=O)c2cc3cc([C@H](F)P(=O)(O)O)ccc3s2)C(=O)N2[C@H](CC[C@H]2C(=O)N2CC(c3cnccc3N3CCC3)C2)C1` [Compound 931, ((R)-(2-(((3S,6S,9R,10aR)-3-(3-(4-(azetidin-1-yl)pyridin-3-yl)azetidine-1-carbonyl)-9-ethyl-5-oxodecahydropyrrolo [1,2-a]azocin-6-yl)carbamoyl)benzo [b]thiophen-5-yl)fluoromethyl) phosphonic acid], the IC50 in assay [1] was < 100 nM; in assay [2], 300 to 3000 nM.

As to `COc1c(C2CN(C(=O)[C@@H]3CC[C@@H]4CCC[C@H](NC(=O)c5cc6cc(C(F)P(=O)(O)O)ccc6s5)C(=O)N43)C2)ccnc1C#N` (stereo partly drawn) [Compound 932, ((2-(((3S,6S,9aS)-3-(3-(2-cyano-3-methoxypyridin-4-yl)azetidine-1-carbonyl)-5-oxooctahydro-1H-pyrrolo[1,2-a]azepin-6-yl)carbamoyl)benzo [b]thiophen-5-yl)fluoromethyl) phosphonic acid], the results for the IC50 in assay [1] and in assay [2] were < 100 nM and 3000 to 30000 nM, respectively.

In the case of `COC1CN(c2ccncc2C2CN(C(=O)[C@@H]3CC[C@@H]4C[C@H](C)C[C@H](NC(=O)c5cc6cc(CP(=O)(O)O)ccc6s5)C(=O)N43)C2)C1` [Compound 933, ((2-(((3S,6S,8R,9aR)-3-(3-(4-(3-methoxyazetidin-1-yl)pyridin-3-yl)azetidine-1-carbonyl)-8-methyl-5-oxooctahydro-1H-pyrrolo[1,2-a]azepin-6-yl)carbamoyl)benzo [b]thiophen-5-yl)methyl) phosphonic acid], the half-maximal inhibitory concentration (IC50) is < 100 nM in assay [1] and 3000 to 30000 nM in assay [2].

Turning to `CC[C@H]1CC[C@H](NC(=O)c2cc3cc([C@H](F)P(=O)(O)O)ccc3s2)C(=O)N2[C@H](CC[C@H]2C(=O)N2CC(c3cnccc3N3CCC3)C2)C1` [Compound 938, ((R)-(2-(((3S,6S,9S,10aR)-3-(3-(4-(azetidin-1-yl)pyridin-3-yl)azetidine-1-carbonyl)-9-ethyl-5-oxodecahydropyrrolo [1,2-a]azocin-6-yl)carbamoyl)benzo [b]thiophen-5-yl)fluoromethyl) phosphonic acid], the IC50 in assay [1] is < 100 nM; in assay [2], 300 to 3000 nM.

For `CC(C)c1ccncc1C1CN(C(=O)[C@@H]2CC[C@@H]3CCC[C@H](NC(=O)c4cc5cc(C(F)P(=O)(O)O)ccc5s4)C(=O)N32)C1` (stereo partly drawn) [Compound 939, (fluoro(2-(((3S,6S,9aS)-3-(3-(4-isopropylpyridin-3-yl)azetidine-1-carbonyl)-5-oxooctahydro-1H-pyrrolo[1,2-a]azepin-6-yl)carbamoyl)benzo [b]thiophen-5-yl)methyl) phosphonic acid], the IC50 in assay [1] was < 100 nM; in assay [2], 3000 to 30000 nM.

For the compound `CC(NC(=O)[C@@H]1CC[C@@H]2CCCC[C@H](NC(=O)c3cc4cc(C(F)(F)P(=O)(O)O)ccc4s3)C(=O)N21)c1n[nH]c2ncccc12` (stereo partly drawn) [Compound 1107, ((2-(((3S,6S,10aS)-3-((1-(1H-pyrazolo[3,4-b]pyridin-3-yl)ethyl)carbamoyl)-5-oxodecahydropyrrolo[1,2-a]azocin-6-yl)carbamoyl)benzo[b]thiophen-5-yl)difluoromethyl)phosphonic acid], the IC50 is 100 to 1000 nM in assay [1] and 300 to 3000 nM in assay [2].

With `O=C(N[C@H]1CCCC[C@H]2CC[C@@H](C(=O)NCc3cnc4[nH]ncc4c3)N2C1=O)c1cc2cc(C(F)(F)P(=O)(O)O)ccc2s1` [Compound 1108, ((2-(((3S,6S,10aS)-3-(((1H-pyrazolo[3,4-b]pyridin-5-yl)methyl)carbamoyl)-5-oxodecahydropyrrolo[1,2-a]azocin-6-yl)carbamoyl)benzo[b]thiophen-5-yl)difluoromethyl)phosphonic acid], the results for the IC50 in assay [1] and in assay [2] were 100 to 1000 nM and 3000 to 30000 nM, respectively.

As to `Cc1cc(C#N)ccc1C1CN(C(=O)[C@@H]2CC[C@@H]3CCCC[C@H](NC(=O)c4cc5cc(C(F)(F)P(=O)(O)O)ccc5s4)C(=O)N32)C1` [Compound 1110, ((2-(((3S,6S,10aS)-3-(3-(4-cyano-2-methylphenyl)azetidine-1-carbonyl)-5-oxodecahydropyrrolo[1,2-a]azocin-6-yl)carbamoyl)benzo[b]thiophen-5-yl)difluoromethyl)phosphonic acid], the IC50 was < 100 nM in assay [1] and 300 to 3000 nM in assay [2].

Take `O=C(N[C@H]1CCCC[C@H]2CC[C@@H](C(=O)NCc3cnc4[nH]cnc4c3)N2C1=O)c1cc2cc(C(F)(F)P(=O)(O)O)ccc2s1` [Compound 1112, ((2-(((3S,6S,10aS)-3-(((3H-imidazo[4,5-b]pyridin-6-yl)methyl)carbamoyl)-5-oxodecahydropyrrolo[1,2-a]azocin-6-yl)carbamoyl)benzo[b]thiophen-5-yl)difluoromethyl)phosphonic acid]: the IC50 in assay [1] is < 100 nM; in assay [2] it was 300 to 3000 nM.

Consider `CC(NC(=O)[C@@H]1CC[C@@H]2CCCC[C@H](NC(=O)c3cc4cc(C(F)(F)P(=O)(O)O)ccc4s3)C(=O)N21)c1c[nH]c2ncccc12` (stereo partly drawn) [Compound 1113, ((2-(((3S,6S,10aS)-3-((1-(1H-pyrrolo[2,3-b]pyridin-3-yl)ethyl)carbamoyl)-5-oxodecahydropyrrolo[1,2-a]azocin-6-yl)carbamoyl)benzo[b]thiophen-5-yl)difluoromethyl)phosphonic acid], for which the figures for the IC50 in assay [1] and in assay [2] were 100 to 1000 nM and 300 to 3000 nM, respectively.

Take `O=C(N[C@H]1CCCC[C@H]2CC[C@@H](C(=O)NCc3cnc4[nH]ccc4c3)N2C1=O)c1cc2cc(C(F)(F)P(=O)(O)O)ccc2s1` [Compound 1114, ((2-(((3S,6S,10aS)-3-(((1H-pyrrolo[2,3-b]pyridin-5-yl)methyl)carbamoyl)-5-oxodecahydropyrrolo[1,2-a]azocin-6-yl)carbamoyl)benzo[b]thiophen-5-yl)difluoromethyl)phosphonic acid]: the figures for the IC50 in assay [1] and in assay [2] were 100 to 1000 nM and 300 to 3000 nM, respectively.

Regarding `O=C(N[C@H]1CCC[C@H]2CC[C@@H](C(=O)NCc3ccc4[nH]cnc4c3)N2C1=O)c1cc2cc(C(F)(F)P(=O)(O)O)ccc2s1` [Compound 1115, ((2-(((3S,6S,9aS)-3-(((1H-benzo[d]imidazol-5-yl)methyl)carbamoyl)-5-oxooctahydro-1H-pyrrolo[1,2-a]azepin-6-yl)carbamoyl)benzo[b]thiophen-5-yl)difluoromethyl)phosphonic acid], the results for the IC50 in assay [1] and in assay [2] were < 100 nM and 300 to 3000 nM, respectively.

Values taken from patent US20250215029A1 (Recludix Pharma, Inc., priority 2022, published 2025).
